The test system of data set [1] is female Sprague-Dawley rats. As to the kind of experiment: Apomorphine-antagonistic effect: apomorphine-triggered jaw motions (mandibulogram). Format: in vivo. The method, then: 4. Apomorphine-antagonistic effect
Jaw motions are triggered in groups of 4-6 female Sprague-Dawley rats by subcutaneous administration of 1.5 mg of apomorphine/kg, and are recorded by means of implanted electrodes (KUBACKI mandibulogram, 1978).

A short description of data set [2]: Acute toxicity. As to conditions: mouse, in vivo, ip; read-out: Toxicity LD 50. The method, then: The substances are administered intraperitoneally to groups of 5-10 female NMRI mice.
Data set [3] has as its system female NMRI mice. As to the kind of experiment: Analgesic effect: D'amour and Smith tail-flick method. Format: in vivo. As to conditions: result in words.
Method: The analgesic effect is determined by means of the D'amour and Smith (1941) tail-flick method. In this, the substances are administered intraperitoneally to groups of 10 female NMRI mice. The pain reaction is triggered 30 minutes after administration. The reaction time, until the tail is flicked out of the way after exposure to a focused light beam, is measured.
Data set [4] has as its system female NMRI mice. The data set is described as follows: Anti-cholinergic effect: protection against death from Physostigmin. Format: in vivo. The procedure:
3. Anti-cholinergic effect
A lethal dose (0.825 mg/kg) of Physostigmin is administered subcutaneously to groups of 10 female NMRI mice. The test substances are administered orally 30 minutes before administering the Physostigmin.

Data set [5] relates to female NMRI mice. As to the kind of experiment: Sedative effect: orientation hypermotility in a new environment, measured photoelectrically. Format: in vivo. The procedure:
The substances are administered orally to groups of 4×3 or 8×3 female NMRI mice. The orientation hypermotility induced by a new environment is determined photoelectrically, 30 minutes after the administration of the substances, for a period of 30 minutes.

“Also recorded” adds a separate entry of the source.

Turning to `CN1CCN(C2=Nc3ccccc3C(=CC#N)c3ccccc32)CC1` (mixture of isomers) [Example 17 (cis-trans mixture), cis,trans-11-cyanomethylene-6-(4-methyl-piperazin-1-yl)-morphanthridine], the ED50 came to 22 mg/kg in data set [1] (Rattus norvegicus, sc, read-out: Apomorphine antagonism ED 50%, female Sprague-Dawley rats, 1.5 mg of apomorphine/kg s.c., dose which reduces number of jaw movements by 50%); 6.26 mg/kg in data set [4] (Mus musculus, read-out: Anti-cholinergic effect ED 50%, oral, 30 min before Physostigmin 0.825 mg/kg s.c., female NMRI mice, dose which protects 50% of animals against death); 2.78 mg/kg in data set [5] (Mus musculus, 0.5 h, read-out: Sedative effect ED 50%, oral, female NMRI mice, dose which reduces orientation hypermotility by 50% vs untreated controls, 30 min after administration). In data set [1] (result in words), the “Apomorphine-antagonistic effect (in words)” value is “somewhat weaker than that of Clozapin”. Moreover, the LD50 in data set [2] amounted to 121 mg/kg. The “Analgesic effect (in words)” value in data set [3] is “not analgesically active”. Moreover, the “Anti-cholinergic effect (in words)” value in data set [4] (result in words, Physostigmin antagonism) was “manifests itself especially; also recorded: more strongly sedative and anti-cholinergic”. The “Sedative effect (in words)” value in data set [5] (result in words) was “relatively strong sedative effects; also recorded: more strongly sedative”.

The record behind these values is patent US4336192A, “5,6-Dihydro-11-alkylene-morphanthridin-6-ones” (BASF Aktiengesellschaft, priority 1979, dated 1982).
